The values below come from patent publication US12091426B2, “Bifunctional degraders of hematopoietic progenitor kinase and therapeutic uses thereof” (Nurix Therapeutics, Inc., priority 2021, dated 2024).

A value given as a limit tells only on which side of the number the result lay.

The target in the experiment is T1, HPK1 (Homo sapiens, UniProt Q92918).
T1 construct: A HiBiT tag was introduced by CRISPR on the N terminus of HPK1 in Jurkat cells; host or cells: Jurkat cells (ATCC TIB-152), monoclonal line with CRISPR knock-in of HiBiT at the endogenous HPK1 locus
T1 sequence (Q92918 whole entry): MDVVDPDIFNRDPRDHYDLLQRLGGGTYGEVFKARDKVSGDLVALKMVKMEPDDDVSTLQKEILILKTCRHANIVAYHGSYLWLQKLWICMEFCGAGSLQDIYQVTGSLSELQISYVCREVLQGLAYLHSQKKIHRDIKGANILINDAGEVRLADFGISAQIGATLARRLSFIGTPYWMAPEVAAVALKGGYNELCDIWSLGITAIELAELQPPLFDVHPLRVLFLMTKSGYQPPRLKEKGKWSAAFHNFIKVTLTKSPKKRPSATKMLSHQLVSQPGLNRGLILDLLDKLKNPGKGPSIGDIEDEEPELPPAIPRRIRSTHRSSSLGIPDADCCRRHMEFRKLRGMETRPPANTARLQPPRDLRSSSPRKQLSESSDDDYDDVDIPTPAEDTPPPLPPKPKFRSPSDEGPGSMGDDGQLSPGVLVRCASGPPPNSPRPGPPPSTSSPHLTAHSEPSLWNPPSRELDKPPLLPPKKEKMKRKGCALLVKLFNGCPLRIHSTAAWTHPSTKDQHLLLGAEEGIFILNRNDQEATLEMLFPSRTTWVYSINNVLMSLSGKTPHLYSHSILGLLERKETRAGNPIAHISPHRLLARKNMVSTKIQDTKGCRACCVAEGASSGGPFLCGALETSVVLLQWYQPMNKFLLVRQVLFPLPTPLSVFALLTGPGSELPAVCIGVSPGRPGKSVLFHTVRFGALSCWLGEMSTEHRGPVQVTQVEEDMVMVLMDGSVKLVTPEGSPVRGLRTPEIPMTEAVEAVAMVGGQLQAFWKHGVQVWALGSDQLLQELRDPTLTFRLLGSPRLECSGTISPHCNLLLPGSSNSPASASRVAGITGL
As to the kind of experiment: HPK1 Cellular HiBit Degradation Assay. The note with it: HiBiT HPK1 Jurkat cells, 24 hrs; for DC50: concentration at which 50% of HPK1 was remaining, read-out: DC50 Category; for Dmax: Jurkat, read-out: Dmax Category. It is filed as cell-based. The essentials: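 HPK1 levels are read by HiBiT luminescence after 24 h exposure of HiBiT-knock-in Jurkat cells to compound at 10 uM–0.1 nM final (11 points). Relative to DMSO (100%), DC50 is the concentration leaving 50% HPK1 from a variable-slope fit, and Dmax is 100 minus minimum remaining. Viability checked in-plate.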

The mark [1] stands for this setting: maximum degradation vs DMSO vehicle control.

For the molecule `CC(C)n1cnc2cc(-c3ccc4c(c3)N([C@H]3C[C@@H](N5CCCCC5)C3)C(=O)C43CCN(C(=O)c4ccc(C(=O)N5CCN(c6ccc(C7CCC(=O)NC7=O)cc6)CC5)cc4)CC3)nc(Nc3ccccc3F)c21` (mixture of isomers) [Example 40, (3RS)-3-[4-(4-{4-[(6-{4-[(2-fluorophenyl)amino]-3-(propan-2-yl)-3H-imidazo[4,5-c]pyridin-6-yl}-2-oxo-1-[(1S,3S)-3-(piperidin-1-yl)cyclobutyl]-1,2-dihydrospiro[indole-3,4′-piperidin]-1′-yl)carbonyl]benzoyl}piperazin-1-yl)phenyl]piperidine-2,6-dione], the DC50 lay in the range of 0.5 to 1 µM. Moreover, the Dmax under setting [1] lay in the range of 50 to 70%.

In the case of `CC(C)n1cnc2cc(-c3ccc4c(c3)N([C@H]3C[C@@H](N5CCCCC5)C3)C(=O)C43CCN(C(=O)c4ccc(C(=O)N5CCN(c6ccc7c(c6)C(=O)N(C6CCC(=O)NC6=O)C7=O)CC5)cc4)CC3)nc(Nc3ccccc3F)c21` (mixture of isomers) [Example 41, 2-[(3RS)-2,6-dioxopiperidin-3-yl]-5-(4-{4-[(6-{4-[(2-fluorophenyl)amino]-3-(propan-2-yl)-3H-imidazo[4,5-c]pyridin-6-yl}-2-oxo-1-[(1S,3S)-3-(piperidin-1-yl)cyclobutyl]-1,2-dihydrospiro[indole-3,4′-piperidin]-1′-yl)carbonyl]benzoyl}piperazin-1-yl)-2,3-dihydro-1H-isoindole-1,3-dione], the DC50 lay within 0.1 to 0.5 µM. Moreover, the Dmax under setting [1] is above 85%.

`CC(C)n1cnc2cc(-c3ccc4c(c3)N([C@H]3C[C@@H](N5CCCCC5)C3)C(=O)C43CCN(C(=O)c4ccc(C(=O)N5CCN(c6ccc7c(c6)C(=O)N(C6CCC(=O)NC6=O)C7=O)CC5)cc4)CC3)nc(Nc3ccncc3F)c21` (mixture of isomers) [Example 42, 2-[(3RS)-2,6-dioxopiperidin-3-yl]-5-(4-{4-[(6-{4-[(3-Fluoropyridin-4-yl)amino]-3-(propan-2-yl)-3H-imidazo[4,5-c]pyridin-6-yl}-2-oxo-1-[(1S,3S)-3-(piperidin-1-yl)cyclobutyl]-1,2-dihydrospiro[indole-3,4′-piperidin]-1′-yl)carbonyl]benzoyl}piperazin-1-yl)-2,3-dihydro-1H-isoindole-1,3-dione]: the DC50 fell in the range of 0.5 to 1 µM. For the same molecule, the greatest degradation seen (Dmax) under setting [1] lay in the range of 50 to 70%.

Take `CC(C)n1cnc2cc(-c3ccc4c(c3)N([C@H]3C[C@@H](N5CCCCC5)C3)C(=O)C43CCN(C(=O)c4ccc(C(=O)NC5CCN(c6ccc7c(c6)C(=O)N(C6CCC(=O)NC6=O)C7=O)CC5)cc4)CC3)nc(NC3CC3)c21` (mixture of isomers) [Example 43, 4-({6-[4-(cyclopropylamino)-3-(propan-2-yl)-3H-imidazo[4,5-c]pyridin-6-yl]-2-oxo-1-[(1S,3S)-3-(piperidin-1-yl)cyclobutyl]-1,2-dihydrospiro[indole-3,4′-piperidin]-1′-yl}carbonyl)-N-(1-{2-[(3RS)-2,6-dioxopiperidin-3-yl]-1,3-dioxo-2,3-dihydro-1H-isoindol-5-yl}piperidin-4-yl)benzamide]: the DC50 fell in the range of 0.5 to 1 µM. The Dmax under setting [1] is 50 to 70%.

For `CC(C)n1cnc2cc(-c3ccc4c(c3)N([C@H]3C[C@@H](N5CCCCC5)C3)C(=O)C43CCN(C(=O)c4ccc(C(=O)NC5CCN(c6ccc7c(c6)C(=O)N(C6CCC(=O)NC6=O)C7=O)CC5)cc4)CC3)nc(NC3CC3)c21` (mixture of isomers) [Example 44], the half-maximal degradation concentration (DC50) was in the range of 0.5 to 1 µM. In addition, the “Dmax Category” value under setting [1] is “B (B: >70%-<85%)”.

Regarding `CC(C)n1cnc2cc(-c3ccc4c(c3)N([C@H]3C[C@@H](N5CCCCC5)C3)C(=O)C43CCN(C(=O)c4ccc(C(=O)N5CCN(c6ccc7c(c6)C(=O)N(C6CCC(=O)NC6=O)C7=O)CC5)nc4)CC3)nc(Nc3ccccc3F)c21` (mixture of isomers) [Example 45, 2-[(3RS)-2,6-dioxopiperidin-3-yl]-5-(4-{5-[(6-{4-[(2-fluorophenyl)amino]-3-(propan-2-yl)-3H-imidazo[4,5-c]pyridin-6-yl}-2-oxo-1-[(1S,3S)-3-(piperidin-1-yl)cyclobutyl]-1,2-dihydrospiro[indole-3,4′-piperidin]-1′-yl)carbonyl]pyridine-2-carbonyl}piperazin-1-yl)-2,3-dihydro-1H-isoindole-1,3-dione], the half-maximal degradation concentration (DC50) was 0.1 to 0.5 µM. Further, the Dmax under setting [1] was in the range of 70 to 85%.

With `CC(C)n1cnc2cc(-c3ccc4c(c3)N([C@H]3C[C@@H](N5CCCCC5)C3)C(=O)C43CCN(C(=O)C4CCN(C[C@H]5CC[C@H](C(=O)N6CCc7cc(C8CCC(=O)NC8=O)ccc7C6)CC5)CC4)CC3)nc(Nc3ccccc3F)c21` (mixture of isomers) [Example 46], the DC50 is 0.1 to 0.5 µM. Moreover, under setting [1], the Dmax was above 85%.

On to `CC(C)n1cnc2cc(-c3ccc4c(c3)N([C@H]3C[C@@H](N5CCCCC5)C3)C(=O)C43CCN(C(=O)C4CCN(C(=O)[C@@H]5CCN(c6ccc(C7CCC(=O)NC7=O)cn6)C5)CC4)CC3)nc(Nc3ccccc3F)c21` (mixture of isomers) [Example 47, (3RS)-3-{6-[(3R)-3-{4-[(6-{4-[(2-fluorophenyl)amino]-3-(propan-2-yl)-3H-imidazo[4,5-c]pyridin-6-yl}-2-oxo-1-[(1S,3S)-3-(piperidin-1-yl)cyclobutyl]-1,2-dihydrospiro[indole-3,4′-piperidin]-1′-yl)carbonyl]piperidine-1-carbonyl}pyrrolidin-1-yl]pyridin-3-yl}piperidine-2,6-dione], for which the DC50 was in the range of 0.1 to 0.5 µM. Also, the greatest degradation seen (Dmax) under setting [1] was 50 to 70%.

With `CC(C)n1cnc2cc(-c3ccc4c(c3)N([C@H]3C[C@@H](N5CCCCC5)C3)C(=O)C43CCN(C(=O)C4CCN(C(=O)[C@H]5CC[C@H](C(=O)N6CCc7ccc(C8CCC(=O)NC8=O)cc7C6)CC5)CC4)CC3)nc(Nc3ccccc3F)c21` (mixture of isomers) [Example 50, (3RS)-3-{2-[(1R,4R)-4-{4-[(6-{4-[(2-fluorophenyl)amino]-3-(propan-2-yl)-3H-imidazo[4,5-c]pyridin-6-yl}-2-oxo-1-[(1S,3S)-3-(piperidin-1-yl)cyclobutyl]-1,2-dihydrospiro[indole-3,4′-piperidin]-1′-yl)carbonyl]piperidine-1-carbonyl}cyclohexanecarbonyl]-1,2,3,4-tetrahydroisoquinolin-7-yl}piperidine-2,6-dione], the DC50 is below 0.1 µM. The maximal degradation (Dmax) under setting [1] is 70 to 85%.

On to `CC(C)n1cnc2cc(-c3ccc4c(c3)N([C@H]3C[C@@H](N5CCCCC5)C3)C(=O)C43CCN(C(=O)C4CCN(C(=O)[C@H]5CC[C@H](C(=O)N6CCCc7cc(C8CCC(=O)NC8=O)ccc76)CC5)CC4)CC3)nc(Nc3ccccc3F)c21` (mixture of isomers) [Example 51, (3RS)-3-{1-[(1R,4R)-4-{4-[(6-{4-[(2-fluorophenyl)amino]-3-(propan-2-yl)-3H-imidazo[4,5-c]pyridin-6-yl}-2-oxo-1-[(1S,3S)-3-(piperidin-1-yl)cyclobutyl]-1,2-dihydrospiro[indole-3,4′-piperidin]-1′-yl)carbonyl]piperidine-1-carbonyl}cyclohexanecarbonyl]-1,2,3,4-tetrahydroquinolin-6-yl}piperidine-2,6-dione], for which the DC50 is below 0.1 µM. Under setting [1], the greatest degradation seen (Dmax) fell in the range of 70 to 85%.

For `CC(C)n1cnc2cc(-c3ccc4c(c3)N([C@H]3C[C@@H](N5CCCCC5)C3)C(=O)C43CCN(C(=O)C4CCN(C(=O)[C@H]5CC[C@H](Nc6cc(C7CCC(=O)NC7=O)ccn6)CC5)CC4)CC3)nc(Nc3ccccc3F)c21` (mixture of isomers) [Example 52, (3RS)-3-(2-{[(1R,4R)-4-{4-[(6-{4-[(2-fluorophenyl)amino]-3-(propan-2-yl)-3H-imidazo[4,5-c]pyridin-6-yl}-2-oxo-1-[(1S,3S)-3-(piperidin-1-yl)cyclobutyl]-1,2-dihydrospiro[indole-3,4′-piperidin]-1′-yl)carbonyl]piperidine-1-carbonyl}cyclohexyl]amino}pyridin-4-yl)piperidine-2,6-dione], the DC50 lay within 0.5 to 1 µM. For the same molecule, the maximal degradation (Dmax) under setting [1] lay within 50 to 70%.

As to `CC(C)n1cnc2cc(-c3ccc4c(c3)N([C@H]3C[C@@H](N5CCCCC5)C3)C(=O)C43CCN(C(=O)C4CCN(C(=O)[C@H]5CC[C@H](Nc6ccc(C7CCC(=O)NC7=O)cc6)CC5)CC4)CC3)nc(NC3CC3)c21` (mixture of isomers) [Example 53, (3RS)-3-(4-{[(1R,4R)-4-[4-({6-[4-(cyclopropylamino)-3-(propan-2-yl)-3H-imidazo[4,5-c]pyridin-6-yl]-2-oxo-1-[(1S,3S)-3-(piperidin-1-yl)cyclobutyl]-1,2-dihydrospiro[indole-3,4′-piperidin]-1′-yl}carbonyl)piperidine-1-carbonyl]cyclohexyl]amino}phenyl)piperidine-2,6-dione], the DC50 was in the range of 0.1 to 0.5 µM. In addition, the Dmax under setting [1] lay in the range of 50 to 70%.

As to `CC(C)n1cnc2cc(-c3ccc4c(c3)N([C@H]3C[C@@H](N5CCCCC5)C3)C(=O)C43CCN(C(=O)C4CCN(C(=O)[C@H]5CC[C@H](Nc6ccc(C7CCC(=O)NC7=O)cc6)CC5)CC4)CC3)nc(Nc3ccccc3F)c21` (mixture of isomers) [Example 54, (3RS)-3-(4-{[(1R,4R)-4-{4-[(6-{4-[(2-fluorophenyl)amino]-3-(propan-2-yl)-3H-imidazo[4,5-c]pyridin-6-yl}-2-oxo-1-[(1S,3S)-3-(piperidin-1-yl)cyclobutyl]-1,2-dihydrospiro[indole-3,4′-piperidin]-1′-yl)carbonyl]piperidine-1-carbonyl}cyclohexyl]amino}phenyl)piperidine-2,6-dione], the 50% degradation concentration (DC50) is below 0.1 µM. Also, the Dmax under setting [1] fell in the range of 70 to 85%.
